From paper PMC4424274, “Evaluation of [^11C]CB184 for imaging and quantification of TSPO overexpression in a rat model of herpes encephalitis” (European Journal of Nuclear Medicine and Molecular Imaging, 2015)

Target: T1, TSPO (Rattus norvegicus, UniProt P16257)
T1 construct: from tissue; host or cells: Brain regions and peripheral organs of male Wistar rats, measured in vivo by PET and ex vivo by gamma counting
Experiment: Ex vivo biodistribution of [^11C]CB184 in control and HSE rats
Experimental: PET scans were performed using a microPET Focus 220 camera (Siemens Medical Solutions Inc., Malvern, PA) on either day 6 or day 7 after inoculation with HSV-1 [18], depending on the severity of clinical symptoms. The rats were anaesthetized with 5 % isoflurane mixed with medical air at a flow rate of […]. After induction, anaesthesia was maintained with 1.5 – 2 % of isoflurane. The anaesthetized rats were positioned in the camera in a supine position with the head in the field of view. The PET tracer [^11C]CB184 was manually injected via the penile vein, and at the same time a dynamic 60-min scan was started. […] For 30 min the animals were kept under anaesthesia on the operation table after injection of the PET tracer into the penile vein, and were then placed in the scanner for a 30-min dynamic scan. A transmission scan was obtained in all rats using a ^57Co point source for attenuation and scatter correction. In the pretreated group, 5 mg/kg unlabelled PK11195 (Sigma-Aldrich, St. Louis, MO) in dimethyl sulphoxide (DMSO) at a concentration of 10 mg/ml was administered via a tail vein 5 min before injection of the PET tracer.
The brain and peripheral organs were excised and dissected, and blood was centrifuged to collect a plasma sample. Tissues were weighed and radioactivity was measured in a gamma counter (LKB Wallac, Turku, Finland). Tracer uptake in each region was corrected for the injected tracer dose and body weight and expressed as standardized uptake value (SUV), which was defined as: radioactivity (MBq/cm^3)/[injected dose (MBq)/body weight (g)].

[1] = HSE rats pretreated with 5 mg/kg PK11195, approximately 75 min after injection
[2] = HSE rats, approximately 75 min after injection
[3] = control (PBS) rats pretreated with 5 mg/kg PK11195, approximately 75 min after injection
[4] = control rats, approximately 75 min after injection

CCCN(CCC)C(=O)Cc1c(-c2ccc(O[11CH3])cc2)nc2c(Cl)cc(Cl)cn12 [[^11C]CB184]
SUV ex vivo, Adrenals [1]: 8.14 ± 7.09 SUV
SUV ex vivo, Bone [1]: 0.39 ± 0.24 SUV
SUV ex vivo, Colon [1]: 0.49 ± 0.36 SUV
SUV ex vivo, Fat [1]: 0.72 ± 0.49 SUV
SUV ex vivo, Heart [1]: 0.77 ± 0.53 SUV
SUV ex vivo, Hippocampus [1]: 0.09 ± 0.05 SUV
SUV ex vivo, Ileum [1]: 2.74 ± 1.77 SUV
SUV ex vivo, Kidney [1]: 1.12 ± 0.75 SUV
SUV ex vivo, Liver [1]: 10.71 ± 9.25 SUV
SUV ex vivo, Lung [1]: 1.62 ± 0.98 SUV
SUV ex vivo, Medulla [1]: 0.13 ± 0.06 SUV
SUV ex vivo, Pancreas [1]: 0.62 ± 0.37 SUV
SUV ex vivo, Parietal/temporal/occipital cortex [1]: 0.10 ± 0.05 SUV
SUV ex vivo, Plasma [1]: 0.19 ± 0.04 SUV
SUV ex vivo, Pons [1]: 0.12 ± 0.10 SUV
SUV ex vivo, Red blood cells [1]: 0.11 ± 0.07 SUV
SUV ex vivo, Spleen [1]: 0.71 ± 0.55 SUV
SUV ex vivo, Stomach [1]: 0.82 ± 0.60 SUV
SUV ex vivo, Striatum [1]: 0.09 ± 0.06 SUV
SUV ex vivo, Submandibularis [1]: 0.79 ± 0.56 SUV
SUV ex vivo, Testis [1]: 0.29 ± 0.21 SUV
SUV ex vivo, Thymus [1]: 0.74 ± 0.46 SUV
SUV ex vivo, Whole brain [1]: 0.08 ± 0.08 SUV
SUV ex vivo, Adrenals [2]: 13.86 ± 4.42 SUV
SUV ex vivo, Amygdala/piriform cortex [2]: 0.52 ± 0.21 SUV
SUV ex vivo, Bone [2]: 0.98 ± 0.14 SUV
SUV ex vivo, Colon [2]: 3.29 ± 0.81 SUV
SUV ex vivo, Fat [2]: 0.57 ± 0.39 SUV
SUV ex vivo, Heart [2]: 23.69 ± 2.71 SUV
SUV ex vivo, Hippocampus [2]: 0.55 ± 0.21 SUV
SUV ex vivo, Ileum [2]: 6.20 ± 2.67 SUV
SUV ex vivo, Kidney [2]: 13.17 ± 2.25 SUV
SUV ex vivo, Liver [2]: 7.97 ± 1.73 SUV
SUV ex vivo, Lung [2]: 22.53 ± 2.41 SUV
SUV ex vivo, Medulla [2]: 1.51 ± 0.57 SUV
SUV ex vivo, Olfactory bulb [2]: 1.52 ± 0.22 SUV
SUV ex vivo, Pancreas [2]: 4.23 ± 0.76 SUV
SUV ex vivo, Parietal/temporal/occipital cortex [2]: 0.41 ± 0.14 SUV
SUV ex vivo, Plasma [2]: 0.28 ± 0.24 SUV
SUV ex vivo, Pons [2]: 1.26 ± 0.52 SUV
SUV ex vivo, Red blood cells [2]: 0.13 ± 0.01 SUV
SUV ex vivo, Spleen [2]: 11.76 ± 1.42 SUV
SUV ex vivo, Stomach [2]: 5.88 ± 1.87 SUV
SUV ex vivo, Striatum [2]: 0.45 ± 0.15 SUV
SUV ex vivo, Submandibularis [2]: 4.89 ± 0.75 SUV
SUV ex vivo, Testis [2]: 0.88 ± 0.12 SUV
SUV ex vivo, Thymus [2]: 3.23 ± 0.33 SUV
SUV ex vivo, Whole brain [2]: 0.99 ± 0.21 SUV
SUV ex vivo, Adrenals [3]: 7.72 ± 5.20 SUV
SUV ex vivo, Bone [3]: 0.31 ± 0.19 SUV
SUV ex vivo, Colon [3]: 0.42 ± 0.24 SUV
SUV ex vivo, Fat [3]: 0.48 ± 0.18 SUV
SUV ex vivo, Heart [3]: 0.68 ± 0.40 SUV
SUV ex vivo, Hippocampus [3]: 0.12 ± 0.08 SUV
SUV ex vivo, Ileum [3]: 2.31 ± 1.15 SUV
SUV ex vivo, Kidney [3]: 0.72 ± 0.44 SUV
SUV ex vivo, Liver [3]: 11.28 ± 5.43 SUV
SUV ex vivo, Lung [3]: 0.95 ± 0.57 SUV
SUV ex vivo, Medulla [3]: 0.12 ± 0.07 SUV
SUV ex vivo, Pancreas [3]: 0.57 ± 0.34 SUV
SUV ex vivo, Parietal/temporal/occipital cortex [3]: 0.10 ± 0.06 SUV
SUV ex vivo, Plasma [3]: 0.27 ± 0.15 SUV
SUV ex vivo, Pons [3]: 0.12 ± 0.08 SUV
SUV ex vivo, Red blood cells [3]: 0.11 ± 0.05 SUV
SUV ex vivo, Spleen [3]: 0.70 ± 0.47 SUV
SUV ex vivo, Stomach [3]: 0.70 ± 0.46 SUV
SUV ex vivo, Striatum [3]: 0.11 ± 0.07 SUV
SUV ex vivo, Submandibularis [3]: 0.70 ± 0.46 SUV
SUV ex vivo, Testis [3]: 0.30 ± 0.24 SUV
SUV ex vivo, Thymus [3]: 0.72 ± 0.44 SUV
SUV ex vivo, Whole brain [3]: 0.15 ± 0.08 SUV
SUV ex vivo, Adrenals [4]: 14.84 ± 5.45 SUV
SUV ex vivo, Bone [4]: 1.00 ± 0.26 SUV
SUV ex vivo, Colon [4]: 3.38 ± 0.97 SUV
SUV ex vivo, Fat [4]: 0.43 ± 0.21 SUV
SUV ex vivo, Heart [4]: 22.81 ± 2.80 SUV
SUV ex vivo, Hippocampus [4]: 0.39 ± 0.18 SUV
SUV ex vivo, Ileum [4]: 6.41 ± 3.07 SUV
SUV ex vivo, Kidney [4]: 12.52 ± 2.22 SUV
SUV ex vivo, Liver [4]: 7.57 ± 1.64 SUV
SUV ex vivo, Lung [4]: 18.39 ± 2.20 SUV
SUV ex vivo, Medulla [4]: 0.59 ± 0.14 SUV
SUV ex vivo, Pancreas [4]: 3.55 ± 0.52 SUV
SUV ex vivo, Parietal/temporal/occipital cortex [4]: 0.32 ± 0.06 SUV
SUV ex vivo, Plasma [4]: 0.18 ± 0.08 SUV
SUV ex vivo, Pons [4]: 0.63 ± 0.08 SUV
SUV ex vivo, Red blood cells [4]: 0.19 ± 0.18 SUV
SUV ex vivo, Spleen [4]: 13.23 ± 2.64 SUV
SUV ex vivo, Stomach [4]: 5.04 ± 0.82 SUV
SUV ex vivo, Striatum [4]: 0.28 ± 0.07 SUV
SUV ex vivo, Submandibularis [4]: 4.28 ± 1.02 SUV
SUV ex vivo, Testis [4]: 0.98 ± 0.11 SUV
SUV ex vivo, Thymus [4]: 3.36 ± 0.58 SUV
SUV ex vivo, Whole brain [4]: 0.66 ± 0.16 SUV
SUV ex vivo, adrenal glands (mean ± SD) (pretreated with unlabelled PK11195, control and HSE groups together): 7.93 ± 5.87 SUV
